± gives the expanded uncertainty stated by the source.
Details: Liquid, Falling or rolling sphere viscometry

With `COCC[N+]1(C)CCCC1.O=S(=O)([N-]S(=O)(=O)C(F)(F)F)C(F)(F)F` the viscosity (313.15 K, 10000 kPa) was 33.3 ± 3.4 mPa·s, the viscosity (313.15 K, 15000 kPa) was 35.3 ± 3.6 mPa·s and the viscosity (313.15 K, 25000 kPa) was 39.5 ± 4 mPa·s. The viscosity (313.15 K, 50000 kPa) was 52 ± 5.3 mPa·s, the viscosity (313.15 K, 75000 kPa) was 67.5 ± 6.9 mPa·s and the viscosity (313.15 K, 100000 kPa) was 86.9 ± 9 mPa·s. It also gave a viscosity (313.15 K, 125000 kPa) of 111.2 ± 12 mPa·s, a viscosity (313.15 K, 150000 kPa) of 141.5 ± 15 mPa·s and a viscosity (343.15 K, 10000 kPa) of 14.8 ± 1.6 mPa·s. The viscosity (343.15 K, 15000 kPa) was 15.5 ± 1.6 mPa·s, the viscosity (343.15 K, 25000 kPa) was 17 ± 1.8 mPa·s and the viscosity (343.15 K, 50000 kPa) was 21.2 ± 2.3 mPa·s. For the same molecule, the viscosity (343.15 K, 75000 kPa) was 26.2 ± 2.8 mPa·s, the viscosity (343.15 K, 100000 kPa) was 32.3 ± 3.5 mPa·s and the viscosity (343.15 K, 125000 kPa) was 39.6 ± 4.4 mPa·s. For the same molecule, the viscosity (343.15 K, 150000 kPa) was 48.5 ± 5.4 mPa·s, the viscosity (363.15 K, 10000 kPa) was 10.2 ± 1.1 mPa·s and the viscosity (363.15 K, 15000 kPa) was 10.7 ± 1.1 mPa·s. It also gave a viscosity (363.15 K, 25000 kPa) of 11.6 ± 1.2 mPa·s, a viscosity (363.15 K, 50000 kPa) of 14.3 ± 1.5 mPa·s and a viscosity (363.15 K, 75000 kPa) of 17.5 ± 1.8 mPa·s. It also gave a viscosity (363.15 K, 100000 kPa) of 21.2 ± 2.2 mPa·s, a viscosity (363.15 K, 125000 kPa) of 25.5 ± 2.7 mPa·s and a viscosity (363.15 K, 150000 kPa) of 30.5 ± 3.2 mPa·s.
In the case of `CCCC[N+]1(C)CCCC1.O=S(=O)([N-]S(=O)(=O)C(F)(F)F)C(F)(F)F`, the viscosity (313.15 K, 10000 kPa) is reported as 46.5 ± 4.8 mPa·s, the viscosity (313.15 K, 15000 kPa) is reported as 49.5 ± 5.1 mPa·s and the viscosity (313.15 K, 25000 kPa) is reported as 55.9 ± 5.7 mPa·s. It also gave a viscosity (313.15 K, 50000 kPa) of 74.8 ± 7.7 mPa·s, a viscosity (313.15 K, 75000 kPa) of 98.8 ± 10 mPa·s and a viscosity (313.15 K, 100000 kPa) of 129.4 ± 14 mPa·s. It also gave a viscosity (313.15 K, 125000 kPa) of 168.4 ± 18 mPa·s, a viscosity (313.15 K, 150000 kPa) of 218 ± 24 mPa·s and a viscosity (343.15 K, 10000 kPa) of 18.2 ± 2 mPa·s. It also gave a viscosity (343.15 K, 15000 kPa) of 19.1 ± 2.1 mPa·s, a viscosity (343.15 K, 25000 kPa) of 21.1 ± 2.3 mPa·s and a viscosity (343.15 K, 50000 kPa) of 26.6 ± 2.9 mPa·s. The viscosity (343.15 K, 75000 kPa) was 33.6 ± 3.7 mPa·s, the viscosity (343.15 K, 100000 kPa) was 42.1 ± 4.7 mPa·s and the viscosity (343.15 K, 125000 kPa) was 52.8 ± 6 mPa·s. It also gave a viscosity (343.15 K, 150000 kPa) of 66.3 ± 7.6 mPa·s, a viscosity (363.15 K, 10000 kPa) of 12.2 ± 1.3 mPa·s and a viscosity (363.15 K, 15000 kPa) of 12.8 ± 1.3 mPa·s. The viscosity (363.15 K, 25000 kPa) was 14.1 ± 1.5 mPa·s, the viscosity (363.15 K, 50000 kPa) was 17.7 ± 1.8 mPa·s and the viscosity (363.15 K, 75000 kPa) was 21.9 ± 2.3 mPa·s. For the same molecule, the viscosity (363.15 K, 100000 kPa) was 26.7 ± 2.8 mPa·s, the viscosity (363.15 K, 125000 kPa) was 32.2 ± 3.4 mPa·s and the viscosity (363.15 K, 150000 kPa) was 38.7 ± 4.1 mPa·s.
Work on `CCOS(=O)(=O)[O-].CCn1cc[n+](C)c1` [1-ethyl-3-methylimidazolium ethyl sulfate] yielded a viscosity (313.15 K, 10000 kPa) of 54.3 ± 5.6 mPa·s, a viscosity (313.15 K, 15000 kPa) of 56.4 ± 5.8 mPa·s and a viscosity (313.15 K, 25000 kPa) of 60.9 ± 6.3 mPa·s. It also gave a viscosity (313.15 K, 50000 kPa) of 73.6 ± 7.6 mPa·s, a viscosity (313.15 K, 75000 kPa) of 88.6 ± 9.2 mPa·s and a viscosity (313.15 K, 100000 kPa) of 106.6 ± 11 mPa·s. It also gave a viscosity (313.15 K, 125000 kPa) of 128.1 ± 14 mPa·s, a viscosity (313.15 K, 150000 kPa) of 153.8 ± 17 mPa·s and a viscosity (343.15 K, 10000 kPa) of 20.2 ± 2.2 mPa·s. It also gave a viscosity (343.15 K, 15000 kPa) of 20.9 ± 2.3 mPa·s, a viscosity (343.15 K, 25000 kPa) of 22.3 ± 2.4 mPa·s and a viscosity (343.15 K, 50000 kPa) of 26.1 ± 2.9 mPa·s. For the same molecule, the viscosity (343.15 K, 75000 kPa) was 30.3 ± 3.4 mPa·s, the viscosity (343.15 K, 100000 kPa) was 35 ± 3.9 mPa·s and the viscosity (343.15 K, 125000 kPa) was 40.2 ± 4.6 mPa·s. It also gave a viscosity (343.15 K, 150000 kPa) of 46.1 ± 5.3 mPa·s, a viscosity (363.15 K, 10000 kPa) of 13.2 ± 1.4 mPa·s and a viscosity (363.15 K, 15000 kPa) of 13.6 ± 1.4 mPa·s. For the same molecule, the viscosity (363.15 K, 25000 kPa) was 14.5 ± 1.5 mPa·s, the viscosity (363.15 K, 50000 kPa) was 16.8 ± 1.8 mPa·s and the viscosity (363.15 K, 75000 kPa) was 19.2 ± 2 mPa·s. For the same molecule, the viscosity (363.15 K, 100000 kPa) was 22 ± 2.3 mPa·s, the viscosity (363.15 K, 125000 kPa) was 25 ± 2.6 mPa·s and the viscosity (363.15 K, 150000 kPa) was 28.2 ± 3 mPa·s.
